The values below come from patent US4760052A, “1,6-dicarba-vasopressin compounds” (Smithkline Beckman Corporation, priority 1987, dated 1988).

*1 amine or outer side, *2 acyl side, *3 side chain or, on linkers, in order; H or OH if unused. Where a SMILES comes first, the peptide text is derived from it. Bridges are numbered along the chain shown (N, C = ends). [ ]: non-standard residue; d: D form. X1 = O=C(CC1(S[*:2])CCCCC1)[*:1]

As a reminder, the Ki is the equilibrium dissociation constant of an inhibitor or competing ligand from its target. A lower Ki goes with tighter binding.

The target of assay [1] is vasopressin stimulated adenylate cyclase. Description: vasopressin stimulated adenylate cyclase activity, kidney medullary membrane. Type of assay: biochemical. The settings on record: Swine; antagonism of vasopressin stimulated adenylate cyclase. Here is the method: In the test procedure for assay of adenylate cyclase activity, the amount of ^32 P/cAMP formed in the absence of medullary membrane is determined (blank). The blank value is subtracted from all experimental data. The compound is tested for its effect on basal adenylate cyclase activity and/or on vasopressin stimulated activity. Each determination is carried out in triplicate. The Ka value is derived from a Lineweaver-Burkeplot. Rel. Vmax =(Vmax drug/Vmax vasopressin) x 100. Ki =I/[Ka'/Ka)-1] where I is the concentration of the antagonist and Ka' and Ka are the concentrations of vasopressin required to give half maximal activity of adenylate cyclase in the presence and absence of antagonist, respectively.

Assay [2] deals with hydropenic rat. Description: Hydropenic Rat Screen (anti-ADH activity in vivo). The settings on record: intraperitoneal, dose required to lower urine osmolality to 300 m-Osmoles/kg. As to the method: The assay for anti-ADH activity in vivo is the hydropenic rat protocol described below:
Food and water are removed from male rats approximately 18 hours prior to testing. Animals are housed 4 per metabolism cage. At 0 hour, the test compound is administered intraperitoneally to the test group and an equivalent volume of vehicle is administered to both control groups (fasted and non-fasted). Urine volume and osmolality are measured every hour for 4 hours. Test values are recorded as ml of urine excreted (cumulative), mEg/rat electrolyte excreted, mg/rat urea excreted, and osmolality in milli-Osmoles/kg H2 O. A […] is used to determine significance. ED300 is defined as the dose of compound (μg/kg) required to lower urine osmolality to 300 m-Osmoles/kg.

In assay [3] the target is vasopressin receptors (V2 -receptors) (Sus scrofa, UniProt P32307). Description: biochemical.
Sequence of vasopressin receptors (V2 -receptors) (P32307 whole entry): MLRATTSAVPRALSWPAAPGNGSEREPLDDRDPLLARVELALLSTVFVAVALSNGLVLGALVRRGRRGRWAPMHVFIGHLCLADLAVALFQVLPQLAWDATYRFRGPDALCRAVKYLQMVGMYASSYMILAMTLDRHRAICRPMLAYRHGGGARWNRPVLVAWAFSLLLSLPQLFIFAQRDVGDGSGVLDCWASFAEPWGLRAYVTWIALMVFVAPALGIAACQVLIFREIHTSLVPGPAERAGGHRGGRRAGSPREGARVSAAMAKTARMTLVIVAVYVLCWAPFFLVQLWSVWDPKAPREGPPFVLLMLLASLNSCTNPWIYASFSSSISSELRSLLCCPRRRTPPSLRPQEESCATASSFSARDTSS
Protocol: Antagonistic activity toward the natural anti-diuretic hormone (anti ADH activity) is determined, in vitro, in the medullary tissue of hog or human kidneys and, in vivo, in the hydropenic rat.
These values represent total and non specific binding, respectively.

The compound `CCOc1ccc(C[C@H]2NC(=O)CC3(CCCCC3)CCC[C@@H](C(=O)N3CCC[C@H]3C(=O)N[C@@H](CCCNC(=N)N)C(N)=O)NC(=O)[C@H](CC(N)=O)NC(=O)[C@H](C(C)C)NC(=O)[C@H](Cc3ccccc3)NC2=O)cc1` [Compound C, [1,6(6,6-cyclopentamethylene-2-amino-L-suberic acid)2-(O--ethylD-tyrosine)-4-valine-9-desglycine]vasopressin] returned a Ki in assay [1] of 4.3 nM. Further, in assay [2], the ED300 was 8.9 µg/kg. Moreover, the Kb in assay [3] was 8.2 nM.
Take `CCOc1ccc(C[C@H]2NC(=O)CC3(CCCCC3)SSC[C@@H](C(=O)N3CCC[C@H]3C(=O)N[C@@H](CCCNC(=N)N)C(N)=O)NC(=O)[C@H](CC(N)=O)NC(=O)[C@H](C(C)C)NC(=O)[C@H](Cc3ccccc3)NC2=O)cc1` [A, [1(mercapto-β,cyclopentamethylenepropionic acid)2-(O--ethylD-tyrosine)-4-valine-8-arginine-9-desglycine]vasopressin, reference compound] ([dY](Et)FVNCPR-NH2; linker N-5 via X1): the Kb in assay [3] amounted to 12 nM.
The same measure, in the same setting: with `CCOc1ccc(C[C@H]2NC(=O)CC3(CCCCC3)SSC[C@H](C(=O)N3CCC[C@H]3C(=O)N[C@@H](CCCNC(=N)N)C(N)=O)NC(=O)[C@H](CC(N)=O)NC(=O)[C@H](C(C)C)NC(=O)[C@H](Cc3ccccc3)NC2=O)cc1` [B, reference compound] ([dY](Et)FVN[dC]PR-NH2; linker N-5 via X1) the figure was 170 nM; with `CCOc1ccc(C[C@H]2NC(=O)CC3(CCCCC3)CCC[C@H](C(=O)N3CCC[C@H]3C(=O)N[C@@H](CCCNC(=N)N)C(N)=O)NC(=O)[C@H](CC(N)=O)NC(=O)[C@H](C(C)C)NC(=O)[C@H](Cc3ccccc3)NC2=O)cc1` [Compound D, [1,6(6,6-cyclopentamethylene-2-amino-D-suberic acid)2-(O--ethy1D-tyrosine)-4-valine-9-desglycine]vasopressin], 72 nM.
